Results: ChEMBL document CHEMBL1201862, “PubChem BioAssay data set” (2004)
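Briefly, cells in 96-well plates were exposed to five compound concentrations for 48 h, and endpoints were estimated by linear interpolation. GI50 = concentration required for 50% inhibition of growth.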 The source made the active and inactive calls. Cut-off read from the data, not from the text of the source: active = GI50 up to about 1.1 µM and inactive = higher. *1 amine or outer side, *2 acyl side, *3 side chain or, on linkers, in order; H or OH if unused. Where a SMILES comes first, the peptide text is derived from it. Bridges are numbered along the chain shown (N, C = ends). Roman numbers before positions name the chains, in order. [ ]: non-standard residue; d: D form. Actinocin(9to1) = Cc1c2oc3c(C)ccc(C(=O)[*:1])c3nc-2c(C(=O)[*:2])c(N)c1=O; NMeV = CN[CH](C(=O)O)C(C)C; Sar = CNCC(=O)O

Legend:
Experiment in all cases: growth of human tumour cells (NCI), 48 h
786-0 = system: 786-0
CCRF-CEM = system: CCRF-CEM
HOP-62 = system: HOP-62
KM12 = system: KM12
Malme-3M = system: Malme-3M
NCI-H23 = system: NCI-H23
NCI-H522 = system: NCI-H522
RPMI-8226 = system: RPMI-8226
SF-539 = system: SF-539
SK-OV-3 = system: SK-OV-3
SNB-78 = system: SNB-78
SW-620 = system: SW-620
U-251 = system: U-251
UACC-257 = system: UACC-257
UO-31 = system: UO-31
MDA-MB-435 = system: MDA-MB-435
MDA-N = system: MDA-N
NCI/ADR-RES = system: NCI/ADR-RES
SK-MEL-2 = system: SK-MEL-2
T47D = system: T47D

SMILES	GI50 (786-0)	GI50 (CCRF-CEM)	GI50 (HOP-62)	GI50 (KM12)	GI50 (Malme-3M)	GI50 (NCI-H23)	GI50 (NCI-H522)	GI50 (RPMI-8226)	GI50 (SF-539)	GI50 (SK-OV-3)	GI50 (SNB-78)	GI50 (SW-620)	GI50 (U-251)	GI50 (UACC-257)	GI50 (UO-31)	GI50 (MDA-MB-435)	GI50 (MDA-N)	GI50 (NCI/ADR-RES)	GI50 (SK-MEL-2)	GI50 (T47D)
CSc1nnc(C(C#N)C#N)nn1	> 100 µM (inactive)	> 100 µM (inactive)	> 100 µM (inactive)	> 100 µM (inactive)	> 100 µM (inactive)	> 100 µM (inactive)	> 100 µM (inactive)	> 100 µM (inactive)	> 100 µM (inactive)	> 100 µM (inactive)	> 100 µM (inactive)	> 100 µM (inactive)	> 100 µM (inactive)	> 100 µM (inactive)	> 100 µM (inactive)					
Cc1ccc(S(=O)(=O)C(CC(NC=O)S(=O)(=O)c2ccc(C)cc2)NC=O)cc1 (stereo unspecified)	> 100 µM (inactive)	62.4 µM (inactive)	> 100 µM (inactive)	> 100 µM (inactive)	> 100 µM (inactive)	> 100 µM (inactive)	> 100 µM (inactive)	> 100 µM (inactive)	> 100 µM (inactive)	> 100 µM (inactive)	> 100 µM (inactive)	> 100 µM (inactive)	> 100 µM (inactive)	> 100 µM (inactive)	> 100 µM (inactive)					
O=c1ssc2ncccc12	16.9 µM (inactive)	31.5 µM (inactive)	20.7 µM (inactive)	20.1 µM (inactive)	19.8 µM (inactive)	28.8 µM (inactive)	7.8 µM (inactive)	12.9 µM (inactive)	30.3 µM (inactive)	> 100 µM (inactive)		19.7 µM (inactive)	15.7 µM (inactive)	20.3 µM (inactive)	16.4 µM (inactive)	15.4 µM (inactive)	19 µM (inactive)	32.6 µM (inactive)	10.4 µM (inactive)	46 µM (inactive)
O=c1[nH]c(Br)nc2[nH]nnc12	25.1 µM (inactive)	7.55 µM (inactive)	17.7 µM (inactive)	> 100 µM (inactive)	6.95 µM (inactive)	> 100 µM (inactive)	> 100 µM (inactive)	17.9 µM (inactive)	16.7 µM (inactive)	39.3 µM (inactive)		45.8 µM (inactive)	68.7 µM (inactive)	55.6 µM (inactive)	11.7 µM (inactive)	19.3 µM (inactive)	38.9 µM (inactive)	10.4 µM (inactive)	8.24 µM (inactive)	26.2 µM (inactive)
COc1ccc(N2C(=O)CC(c3c[nH]c4ncccc34)C2=O)cc1 (stereo unspecified)	22.3 µM (inactive)	6.4 µM (inactive)	> 100 µM (inactive)	> 100 µM (inactive)	22 µM (inactive)	24.2 µM (inactive)	7.98 µM (inactive)	> 100 µM (inactive)	> 47.2 µM (inactive)	> 100 µM (inactive)		18.2 µM (inactive)	> 100 µM (inactive)	19.3 µM (inactive)	32.4 µM (inactive)	14.4 µM (inactive)	14.2 µM (inactive)	> 53 µM (inactive)	36.1 µM (inactive)	24.1 µM (inactive)
CCOC(=O)Nc1cc2ccccc2c(/N=N/c2ccccc2)c1O	34.8 µM (inactive)	> 100 µM (inactive)	27.9 µM (inactive)	> 100 µM (inactive)	55.6 µM (inactive)	> 100 µM (inactive)	29.6 µM (inactive)	> 100 µM (inactive)	13 µM (inactive)	17.2 µM (inactive)		> 100 µM (inactive)	26.5 µM (inactive)	> 100 µM (inactive)	> 100 µM (inactive)	> 100 µM (inactive)	> 100 µM (inactive)	> 100 µM (inactive)	> 100 µM (inactive)	91.4 µM (inactive)
COc1cc(CNCc2cc(OC)c(OC)c(OC)c2)cc(OC)c1OC	> 10 µM (inactive)	2.37 µM (inactive)	> 10 µM (inactive)	> 10 µM (inactive)	> 10 µM (inactive)	> 10 µM (inactive)	> 4.88 µM (inactive)	9.73 µM (inactive)	> 10 µM (inactive)	> 10 µM (inactive)		> 10 µM (inactive)	> 10 µM (inactive)	> 10 µM (inactive)	> 10 µM (inactive)	> 10 µM (inactive)	> 10 µM (inactive)	> 10 µM (inactive)	> 10 µM (inactive)	> 10 µM (inactive)
CCOC(=O)C(O)(C(=O)OCC)c1cc(C(C)(C)C)c(O)c(C(C)(C)C)c1	51.4 µM (inactive)	37.2 µM (inactive)	> 100 µM (inactive)	34.8 µM (inactive)	42.2 µM (inactive)	43.6 µM (inactive)	36.9 µM (inactive)	26.1 µM (inactive)	28.4 µM (inactive)	70.3 µM (inactive)		37 µM (inactive)	41 µM (inactive)	34.4 µM (inactive)	52.2 µM (inactive)	37.2 µM (inactive)	36.4 µM (inactive)	18.6 µM (inactive)	27.7 µM (inactive)	62.2 µM (inactive)
Cc1c2oc3c(C)ccc(C(=O)NC4C(=O)NC(C(C)C)C(=O)N5CCCC5C(=O)N(C)CC(=O)N(C)C(C(C)C)C(=O)OC4C)c3nc-2c(C(=O)NC2C(=O)NC(C(C)C)C(=O)N3CCCC3C(=O)N(C)CC(=O)N(C)C(C(C)C)C(=O)OC2C)c(N)c1=O (stereo unspecified) (I: TVP[Sar][NMeV] / II: TVP[Sar][NMeV]; ester I:1-I:C, II:1-II:C; linker I:N-II:N via Actinocin(9to1); configuration not given here)	0.000143 µM (active)	< 0.0001 µM (active)	0.000486 µM (active)	< 0.0001 µM (active)	0.000273 µM (active)	0.000556 µM (active)	< 0.0001 µM (active)	0.00104 µM (active)	< 0.0001 µM (active)	0.0017 µM (active)		0.000698 µM (active)	< 0.0001 µM (active)	0.000957 µM (active)	0.0152 µM (active)	0.000461 µM (active)	0.000197 µM (active)	0.0499 µM (active)	< 0.0001 µM (active)	0.000507 µM (active)
Cc1nc2c(sc3nc4ccccc4n32)c(=O)[nH]1	> 100 µM (inactive)	> 100 µM (inactive)	> 100 µM (inactive)	> 100 µM (inactive)	> 100 µM (inactive)	> 100 µM (inactive)	> 100 µM (inactive)	> 100 µM (inactive)	> 100 µM (inactive)	73.1 µM (inactive)		> 100 µM (inactive)	> 100 µM (inactive)	> 100 µM (inactive)	> 100 µM (inactive)	> 100 µM (inactive)	> 100 µM (inactive)	> 100 µM (inactive)	> 100 µM (inactive)	> 100 µM (inactive)
CN1NC2(CCCCC2)ON=C1c1ccccc1	> 100 µM (inactive)	> 100 µM (inactive)	> 100 µM (inactive)	> 100 µM (inactive)	> 100 µM (inactive)	> 100 µM (inactive)	> 100 µM (inactive)		> 100 µM (inactive)	> 100 µM (inactive)	> 100 µM (inactive)	> 100 µM (inactive)	> 100 µM (inactive)	> 100 µM (inactive)						
COc1cc(/C=C2\CCC/C(=C\c3cc(OC)c(O)c(OC)c3)C2=O)cc(OC)c1O	1.7 µM (inactive)	0.43 µM (active)	1.8 µM (inactive)	1.38 µM (inactive)	1.51 µM (inactive)	1.35 µM (inactive)	1.53 µM (inactive)	1.55 µM (inactive)	2.16 µM (inactive)	1.81 µM (inactive)		3.37 µM (inactive)	1.36 µM (inactive)	3.42 µM (inactive)	1.69 µM (inactive)	1.84 µM (inactive)	1.79 µM (inactive)	2.19 µM (inactive)	2.4 µM (inactive)	2.79 µM (inactive)
O=C1CCCc2cc3c(cc21)CC1(C3)Cc2ccc3c(c2C1)C(=O)CCC3 (stereo unspecified)	30.7 µM (inactive)	6.92 µM (inactive)	67.9 µM (inactive)	14 µM (inactive)	9.4 µM (inactive)	22.5 µM (inactive)	20.9 µM (inactive)	7.59 µM (inactive)	28.3 µM (inactive)	> 100 µM (inactive)		15.6 µM (inactive)	39.2 µM (inactive)	5.24 µM (inactive)	32.4 µM (inactive)	4.91 µM (inactive)	5.18 µM (inactive)	6.25 µM (inactive)	24.2 µM (inactive)	24.1 µM (inactive)
O=C1c2ccccc2-c2c1c1ccccc1c(=O)n2-c1cccnc1	9.91 µM (inactive)	> 10 µM (inactive)	12.1 µM (inactive)	> 100 µM (inactive)	> 95.3 µM (inactive)	37.8 µM (inactive)	10.5 µM (inactive)	> 39.5 µM (inactive)	21.3 µM (inactive)	42.6 µM (inactive)		20.2 µM (inactive)	22.7 µM (inactive)	> 100 µM (inactive)	> 48.8 µM (inactive)	> 100 µM (inactive)	> 100 µM (inactive)	45.8 µM (inactive)	> 100 µM (inactive)	> 64.4 µM (inactive)
COc1cc(OCc2nc3ccccc3n3cccc23)cc(OC)c1OC	24.4 µM (inactive)	8.49 µM (inactive)	37.2 µM (inactive)	15.9 µM (inactive)	20.6 µM (inactive)	5.6 µM (inactive)	13.1 µM (inactive)	1.34 µM (inactive)	24.8 µM (inactive)	40.6 µM (inactive)		8.34 µM (inactive)	23.3 µM (inactive)	10.6 µM (inactive)	28.1 µM (inactive)	16 µM (inactive)	19.4 µM (inactive)	17.9 µM (inactive)	> 100 µM (inactive)	3.78 µM (inactive)
